Assay results from patent US7241776B2, “Cyanoamidine P2X7 antagonists for the treatment of pain” (Abbott Laboratories, priority 2004, dated 2007).

melting point [°C] | SMILES
151 to 152 | Cc1ccccc1CC(=NC#N)NC(NC(=O)CF)C(C)(C)C (stereo not drawn)
182 to 183 | Cc1ccccc1CC(=NC#N)NC(NC(=O)Cc1ccccc1)C(C)(C)C (stereo not drawn) [Example 1, N-(1-{[N-cyano-2-(2-methylphenyl)ethanimidoyl]amino}-2,2-dimethylpropyl)-2-phenylacetamide]
183 to 185 | Cc1ccccc1CC(=NC#N)NC(NC(=O)Cc1ccc(Cl)cc1)C(C)(C)C (stereo not drawn) [Example 2, 2-(4-chlorophenyl)-N-(1-{[N-cyano-2-(2-methylphenyl)ethanimidoyl]amino}-2,2-dimethylpropyl)acetamide]
153 to 155 | COc1ccc(CC(=O)NC(NC(Cc2ccccc2C)=NC#N)C(C)(C)C)cc1OC (stereo not drawn) [Example 3, N-(1-{[N-cyano-2-(2-methylphenyl)ethanimidoyl]amino}-2,2-dimethylpropyl)-2-(3,4-dimethoxyphenyl)acetamide]
199 to 201 | COc1ccc(CC(=O)NC(NC(Cc2ccccc2C)=NC#N)C(C)(C)C)cc1 (stereo not drawn) [Example 4, N-(1-{[N-cyano-2-(2-methylphenyl)ethanimidoyl]amino}-2,2-dimethylpropyl)-2-(4-methoxyphenyl)acetamide]
167 to 169 | Cc1ccccc1CC(=NC#N)NC(NC(=O)Cc1ccc2c(c1)OCO2)C(C)(C)C (stereo not drawn) [Example 5, 2-(1,3-benzodioxol-5-yl)-N-(1-{[N-cyano-2-(2-methylphenyl)ethanimidoyl]amino}-2,2-dimethylpropyl)acetamide]
199 to 201 | Cc1ccccc1CC(=NC#N)NC(NC(=O)Cc1ccc(C#N)cc1)C(C)(C)C (stereo not drawn) [Example 6, N-(1-{[N-cyano-2-(2-methylphenyl)ethanimidoyl]amino}-2,2-dimethylpropyl)-2-(4-cyanophenyl)acetamide]
180 to 181 | Cc1ccccc1CC(=NC#N)NC(NC(=O)Cc1ccc2c(c1)OCCO2)C(C)(C)C (stereo not drawn) [Example 7, N-(1-{[N-cyano-2-(2-methylphenyl)ethanimidoyl]amino}-2,2-dimethylpropyl)-2-(2,3-dihydro-1,4-benzodioxin-6-yl)acetamide]
97 to 100 | Cc1ccccc1CC(=NC#N)NC(NC(=O)Cc1cccc2ccccc12)C(C)(C)C (stereo not drawn) [Example 9, N-(1-{[N-cyano-2-(2-methylphenyl)ethanimidoyl]amino}-2,2-dimethylpropyl)-2-(1-naphthyl)acetamide]
172 to 173 | Cc1ccccc1CC(=NC#N)NC(NC(=O)Cc1ccc2ncccc2c1)C(C)(C)C (stereo not drawn) [Example 10, N-(1-{[N-cyano-2-(2-methylphenyl)ethanimidoyl]amino}-2,2-dimethylpropyl)-2-quinolin-6-ylacetamide]
165 to 166 | Cc1ccccc1CC(=NC#N)NC(NC(=O)Cc1ccc2cccnc2c1)C(C)(C)C (stereo not drawn) [Example 11, N-(1-{[N-cyano-2-(2-methylphenyl)ethanimidoyl]amino}-2,2-dimethylpropyl)-2-quinolin-7-ylacetamide]
154 to 155 | Cc1ccccc1CC(=NC#N)NC(NC(=O)CCCc1cccs1)C(C)(C)C (stereo not drawn) [Example 12, N-(1-{[N-cyano-2-(2-methylphenyl)ethanimidoyl]amino}-2,2-dimethylpropyl)-4-thien-2-ylbutanamide]
178 to 179 | Cc1ccccc1CC(=NC#N)NC(NC(=O)Cc1ccc(F)c(F)c1)C(C)(C)C (stereo not drawn) [Example 13, N-(1-{[N-cyano-2-(2-methylphenyl)ethanimidoyl]amino}-2,2-dimethylpropyl)-2-(3,4-difluorophenyl)acetamide]
196 to 198 | CCSc1ccc(CC(=O)NC(NC(Cc2ccccc2C)=NC#N)C(C)(C)C)cc1 (stereo not drawn) [Example 14, N-(1-{[N-cyano-2-(2-methylphenyl)ethanimidoyl]amino}-2,2-dimethylpropyl)-2-[4-(ethylthio)phenyl]acetamide]
201 to 202 | CSc1ccc(CC(=O)NC(NC(Cc2ccccc2C)=NC#N)C(C)(C)C)cc1 (stereo not drawn) [Example 15, N-(1-{[N-cyano-2-(2-methylphenyl)ethanimidoyl]amino}-2,2-dimethylpropyl)-2-[4-(methylthio)phenyl]acetamide]
171 to 172 | COc1ccc(CCCC(=O)NC(NC(Cc2ccccc2C)=NC#N)C(C)(C)C)cc1 (stereo not drawn) [Example 16, N-(1-{[N-cyano-2-(2-methylphenyl)ethanimidoyl]amino}-2,2-dimethylpropyl)-4-(4-methoxyphenyl)butanamide]
151 to 152 | Cc1ccccc1CC(=NC#N)NC(NC(=O)CCCCc1ccccc1)C(C)(C)C (stereo not drawn) [Example 17, N-(1-{[N-cyano-2-(2-methylphenyl)ethanimidoyl]amino}-2,2-dimethylpropyl)-5-phenylpentanamide]
84 to 86 | Cc1ccccc1CC(=NC#N)NC(NC(=O)Cc1cccnc1)C(C)(C)C (stereo not drawn) [Example 18, N-(1-{[N-cyano-2-(2-methylphenyl)ethanimidoyl]amino}-2,2-dimethylpropyl)-2-pyridin-3-ylacetamide]
109 to 110 | Cc1ccccc1C(=NC#N)NC(NC(=O)Cc1ccc(Cl)cc1)C(C)(C)C (stereo not drawn) [Example 19, 2-(4-chlorophenyl)-N-(1-{[(cyanoimino)(2-methylphenyl)methyl]amino}-2,2-dimethylpropyl)acetamide]
118 to 119 | Cc1ncccc1CC(=NC#N)NC(NC(=O)Cc1ccc(Cl)cc1)C(C)(C)C (stereo not drawn) [Example 20, 2-(4-chlorophenyl)-N-(1-{[N-cyano-2-(2-methylpyridin-3-yl)ethanimidoyl]amino}-2,2-dimethylpropyl)acetamide]
164 to 165 | COc1ccc(CC(=O)NC(NC(Cc2cccnc2C)=NC#N)C(C)(C)C)cc1OC (stereo not drawn) [Example 21, N-(1-{[N-cyano-2-(2-methylpyridin-3-yl)ethanimidoyl]amino}-2,2-dimethylpropyl)-2-(3,4-dimethoxyphenyl)acetamide]
186 to 188 | CC(C)(C)C(NC(=O)Cc1ccc(Cl)cc1)NC(Cc1cccc2ncccc12)=NC#N (stereo not drawn) [Example 23, 2-(4-chlorophenyl)-N-(1-{[N-cyano-2-quinolin-5-ylethanimidoyl]amino}-2,2-dimethylpropyl)acetamide]
203 to 205 | COc1ccc(CC(=O)NC(NC(=NC#N)c2cccc3ncccc23)C(C)(C)C)cc1OC (stereo not drawn) [Example 24, N-(1-{[(cyanoimino)(quinolin-5-yl)methyl]amino}-2,2-dimethylpropyl)-2-(3,4-dimethoxyphenyl)acetamide]
103 to 104 | COc1ccc(CCC(C)NC(Cc2ccccc2C)=NC#N)cc1 (stereo not drawn) [Example 35, N′-cyano-N-[3-(4-methoxyphenyl)-1-methylpropyl]-2-(2-methylphenyl)ethanimidamide]
141 to 142 | N#CN=C(Cc1ccccc1F)N[C@@H]1CCc2ccccc21 [Example 50, N′-cyano-N-[(1R)-2,3-dihydro-1H-inden-1-yl]-2-(2-fluorophenyl)ethanimidamide]
52 to 54 | CC[C@@H](NC(Cc1cccnc1C)=NC#N)c1ccccc1 [Example 57, N′-cyano-2-(2-methylpyridin-3-yl)-N-[(1R)-1-phenylpropyl]ethanimidamide]
193 to 194 | Cc1ncccc1CC(=NC#N)N[C@@H]1CCCc2ccccc21 [Example 58, N′-cyano-2-(2-methylpyridin-3-yl)-N-[(1R)-1,2,3,4-tetrahydronaphthalen-1-yl]ethanimidamide]
